The values that follow are results of earlier work, collected in patent US20100317666A1, “Composition Comprising An NK-1 Receptor Antagonist And An SSRI For The Treatment Of Tinnitus And Hearing Loss” (Glaxo Group Limited, priority 2006, published 2010).

For series [1] the following is noted: 8-12 weeks treatment; high dose (up to 50 mg/day).
For series [2] the following is noted: iv infusion; transient effect.

As to `Fc1ccc([C@@H]2CCNC[C@H]2COc2ccc3c(c2)OCO3)cc1` (relative stereo) [paroxetine, trans-(−)-3-[(1,3-benzodioxol-5-yloxy)methyl]-4-(4-fluorophenyl)piperidine], the effects on tinnitus result in series [1] is “Modest effects”.

`CCN(CC)CC(=O)Nc1c(C)cccc1C` [lidocaine]: the “subject responding with tinnitus partial or complete inhibition” value in series [2] is “up to 60%”.
